Experimental data from US10736933B2, “Peptide-induced NK cell activation” (priority 2015, dated 2020).

Tested on: NKL cell line transfected with KIR2DS2
Assay: Vav1 phosphorylation (pVav1 Western blot) in NKL cells transfected with KIR2DS2
Format: cell-based
Settings: L721.174 (HLA-Cw*0102) cells loaded with peptide; KIR2DS2-transfected NKL, 5 minutes
Method: A. L721.174 cells were incubated with indicated peptides. The cells were then incubated with the NK cell line transfected with KIR2DS2. The cells were lysed and the KIR2DS2 was then immunoprecipitated from the mixture using the GL183 antibody coupled to protein-G beads. The immune precipitate was analysed by Western blotting using a phosphotyrosine antibody. The membrane was then stripped and reprobed with an antibody to DAP12 the molecule that transduces a positive signal from KIR2DS2. Shown are the regions on the blots at the level of DAP12 (12-15 kDa). B. L721.174 cells were incubated with indicated peptides. The cells were then incubated with the NK cell line transfected with KIR2DS2 or transfected with KIR2DL2. The cells were lysed in 1% NP-40 and then analysed by Western blotting using antibodies to pVav1 and then following stripping of the membrane to Vav1. Shown are Western blots around the 98 kDa region, and below them the corresponding densitometries for 3 independent experiments.
FIG. 7 1×10^6 L721.221-HLA-C*0304-ICP47 cells were incubated overnight at 26° C. with indicated peptides at a concentration of […]. The cells were then incubated with the NKL cell line transfected with KIR2DS2 or transfected with KIR2DL2 for 5 minutes. The cells were lysed in 1% NP-40 and then analysed by Western blotting using antibodies to pVav1 and then following stripping of the membrane to Vav1. Shown are Western blots around the 98 kDa region, and below them the corresponding densitometries for 2 independent experiments.
FIG. 14—The Dengue virus peptide IVDLMCHATF (SEQ ID NO: 1) activates KIR2DS2 positive NK cells. 174 cells were incubated with the IVDLMCHATF (SEQ ID NO: 1) and then KIR2DS2-positive transfected NKL cells or KIR2DL2-positve transfected NKL cells. Activation of NK cells was assessed by western blotting for phosphorylated Vav1, and compared to total Vav1.
With reference to FIG. 6A, 1×10^6 L721.174 cells were incubated overnight at 26° C. with indicated peptides at a concentration of […]. The cells were then incubated with the NK cell line transfected with KIR2DS2 for 5 minutes. The cells were lysed in 1% digitonin buffer and the KIR2DS2 was then immunoprecipitated from the mixture using the GL183 antibody coupled to protein-G beads. The immune precipitate was analysed by Western blotting using a phosphotyrosine antibody. […] The cells were lysed in 1% NP-40 and then analysed by Western blotting using antibodies to pVav1 and then following stripping of the membrane to Vav1. […]
With reference to FIG. 7, 1×10^6 HLA-C*0304:ICP47:721.221 cells were incubated overnight at 26° C. with indicated peptides at a concentration of […]. […] The cells were lysed in 1% NP-40 and then analysed by Western blotting using antibodies to pVav1 and then following stripping of the membrane to Vav1. […]

| Sequence | activation of NK cells (phosphorylated Vav1 compared to total Vav1) |
| --- | --- |
| IVDLMCHATF [Dengue virus peptide] | activated KIR2DS2 |
| LNPSVAATL [peptide recognized by KIR2DS2-positive NK cells] | activates NK cells expressing KIR2DS2 |
